These compounds were tested on human breast cancer cell BT-474 (assay: Inhibitory action on breast cancer cell BT-474 proliferation in vitro). Conditions: 120 h, BT-474 cells, cultured 5 days, SRB staining.
Format: cell-based
Method: A suspension of human breast cancer cell BT-474 (100 μl (6,000 cells)) were sown to a 96-well microplate and cultured in an incubator (37° C., 5% carbon dioxide). On the following day, 100 μl of a solution of each test compound, which was previously diluted 2-fold, was added, and the cells were cultured for 5 days. After the culture medium containing the test compound was removed, the cells were washed and fixed with 50% trichloroacetic acid, after which a 0.4% (w/v) SRB solution (dissolved in 1% acetic acid) was added to fix and stain the cell protein (Skehan et al., Journal of the National Cancer Institute, Vol. 82, pp. 1107-1112, 1990). After washing with a 1% acetic acid solution, 100 μl of an extract (10 mM Tris solution) was added to extract the pigment, and absorbance was measured at an absorption wavelength of 550 nm to quantify the amount of cells as protein content. Taking as 100% the protein content for the control group, which received no test compound solution, the ratio of the residual protein content for each treatment group was determined, and the compound concentration required to achieve 50% suppression of the residual cell content relative to the control (IC50 value) was calculated.

IC50 | SMILES
< 100 nM | CC(C)(C(=O)NCCn1ccc2ncnc(Nc3ccc(Oc4cccc(C(F)(F)F)c4)c(Cl)c3)c21)S(C)(=O)=O [Example 169, N-{2-[4-({3-chloro-4-[3-(trifluoromethyl)phenoxy]phenyl}amino)-5H-pyrrolo[3,2-d]pyrimidin-5-yl]ethyl}-2-methyl-2-(methylsulfonyl)propanamide]

Each compound was assayed against T1, HER2 intracellular domain (Homo sapiens, UniProt P04626) (assay: Determination of HER2 kinase inhibitory activity). Conditions: 1.0 μM test compound; poly-Glu:Tyr (4:1) substrate, [γ-32P]ATP, 25° C., 10 min; read-out: HER2 kinase Inhibitory rate (%) at 1.0 μM.
T1 construct: made in house; host or cells: SF-21 insect cells, recombinant baculovirus BAC-HER2
T1 sequence (P04626 676-1255 limits assumed): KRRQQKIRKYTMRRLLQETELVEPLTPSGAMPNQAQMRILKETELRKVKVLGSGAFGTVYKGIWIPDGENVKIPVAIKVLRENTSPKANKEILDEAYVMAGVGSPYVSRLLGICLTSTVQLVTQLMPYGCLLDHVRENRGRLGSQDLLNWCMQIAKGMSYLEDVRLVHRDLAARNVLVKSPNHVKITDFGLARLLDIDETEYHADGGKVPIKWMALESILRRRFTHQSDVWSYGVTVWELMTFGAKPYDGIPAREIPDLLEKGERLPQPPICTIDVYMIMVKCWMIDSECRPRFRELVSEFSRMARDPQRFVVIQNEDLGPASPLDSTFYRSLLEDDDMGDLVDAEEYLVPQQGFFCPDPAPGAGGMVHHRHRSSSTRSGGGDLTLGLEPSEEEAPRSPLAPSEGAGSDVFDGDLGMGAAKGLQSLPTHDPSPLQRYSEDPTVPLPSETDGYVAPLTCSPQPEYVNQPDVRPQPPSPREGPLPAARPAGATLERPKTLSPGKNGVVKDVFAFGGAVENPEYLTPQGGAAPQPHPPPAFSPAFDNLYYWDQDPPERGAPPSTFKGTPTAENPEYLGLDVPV
Format: biochemical
Method: (§1) Human HER2 gene was cloned by RT-PCR using total RNA prepared from MCF7 cells as a template. The primer used for RT-PCR was prepared from nucleotide sequence (Genbank Accession M11730) information of HER2 gene by adding a nucleotide sequence encoding flag peptide and a restriction enzyme recognition sequence to a nucleotide sequence (2176-3918 of Genbank Accession M11730) encoding the HER2 intracellular domain region, so that the protein contains an N-terminal Flag tag. The primer nucleotide sequence is shown below.
The RT reaction was conducted using SuperScript First-Strand Synthesis System for RT-PCR (Invitrogen) and the PCR reaction was conducted using a KOD-plus kit (TOYOBO). The obtained PCR product was electrophoresed on agarose gel (1%), the DNA fragment amplified by PCR was recovered from the gel, and then digested with restriction enzymes Sal I and Sph I. The DNA treated with the restriction enzymes was electrophoresed on agarose gel (1%), and the obtained DNA fragment was recovered and ligated to plasmid pFASTBAC1 (Invitrogen) digested with restriction enzymes Sal I and Sph I to give expression plasmid pFB-HER2. The nucleotide sequence of the insertion fragment was confirmed and found to be identical with the nucleotide sequence (2176-3918 of Genbank Accession M11730) of HER2 intracellular domain. Furthermore, using BAC-TO-BAC Baculovirus Expression System (Invitrogen), recombinant baculovirus BAC-HER2 was prepared.
SF-21 cells were sown at 1×10^6 cells/mL to Sf-900II SFM medium (1 L, Invitrogen) containing 10% fetal bovine serum (trace), 50 mg/L gentamicin (Invitrogen) and 0.1% Pluronic F-68 (Invitrogen), and shaking culture was performed using a 2 L volume Erlenmeyer flask at 27° C., 100 rpm. After culturing for 24 hrs, recombinant baculovirus BAC-HER2 (13.4 mL) was added, and the mixture was further cultured for 3 days. The culture medium was centrifuged at 2,000 rpm for 5 min. to give virus-infected cells. The infected cells were washed with a phosphate buffered saline (Invitrogen), centrifuged under the same conditions, and the cells were preserved at −80° C. The cryopreserved cells were thawed in ice, suspended in buffer A (50 mM Tris buffer (30 mL, pH 7.4) containing 20% glycerol, 0.15 M NaCl) supplemented with Complete Protease Inhibitor (Boehringer), and ruptured 3 times with a Polytron homogenizer (Kinematica) at 20,000 rpm for 30 sec. The rupture medium was clarified by centrifugation at 40,000 rpm for 30 min. and filtered with a 0.45 μm filter. The filtrate was passed through a column packed with Anti-FLAG M2 Affinity Gel (4 mL, Sigma) at a flow rate of about 0.5 mL/min. The column was washed with buffer A, and eluted with buffer A containing 100 μg/mL of FLAG peptide. The eluate was concentrated with Vivaspin 20 (Vivascience) having a molecular weight cut off of 30K. The concentrate was purified by gel filtration using Hi Load Superdex 200 pg 16/60 (Amersham Bioscience) equilibrated with buffer A. The fractions containing HER2 intracellular domain were collected, glycerol was added to the final concentration of 50% and cryopreserved at −80° C.
A test compound dissolved in dimethyl sulfoxide (DMSO) was diluted with a buffer for kinase reaction (50 mM Tris-HCl (pH7.5), 5 mM MgCl2, 5 mM MnCl2, 2 mM dithiothreitol, 0.01% Tween-20). To this compound solution (10 μL) was added a buffer for kinase reaction (20 μL) containing 5 μg/mL of HER2 intracellular domain obtained in Experimental Example 1B and 12.5 μg/mL of polypeptide substrate poly-Glu:Tyr (4:1) (Sigma). To the obtained mixture was added 20 μL of ATP solution (1.25 μM ATP, 0.05 μCi [γ-^32P]ATP), the mixture was allowed to react at 25° C. for 10 min. and the reaction was quenched with 50 μL of 20% TCA solution. The reaction solution was allowed to stand at 4° C. for 20 min., and the acid insoluble fraction was transferred to GF/C filter (PerkinElmer) using cell harvester (PerkinElmer) and washed with 250 mM phosphoric acid solution. […]

inhibition at 1 µM | SMILES
94.9% | Cc1ccc(Oc2ccc(Nc3ncnc4cc(/C=C/CO)[nH]c34)cc2C)cn1 [Example 13, (2E)-3-[4-({3-methyl-4-[(6-methylpyridin-3-yl)oxy]phenyl}amino)-5H-pyrrolo[3,2-d]pyrimidin-6-yl]-2-propen-1-ol]
87% | CC(C)(O)CC(=O)NCCn1ccc2ncnc(Nc3ccc(Oc4cccc(C(F)(F)F)c4)c(Cl)c3)c21 [Example 158, N-{2-[4-({3-chloro-4-[3-(trifluoromethyl)phenoxy]phenyl}amino)-5H-pyrrolo[3,2-d]pyrimidin-5-yl]ethyl}-3-hydroxy-3-methylbutanamide]
100% | CS(=O)(=O)CC(=O)NCCn1ccc2ncnc(Nc3ccc(Oc4cccc(Cl)c4)c(Cl)c3)c21 [Example 191, N-[2-(4-{[3-chloro-4-(3-chlorophenoxy)phenyl]amino}-5H-pyrrolo[3,2-d]pyrimidin-5-yl)ethyl]-2-(methylsulfonyl)acetamide]
96.1% | Cn1ccc2ncnc(Nc3ccc(OCc4cccc(F)c4)c(Cl)c3)c21 [Example 39, N-{3-chloro-4-[(3-fluorobenzyl)oxy]phenyl}-5-methyl-5H-pyrrolo[3,2-d]pyrimidin-4-amine]
95.9% | Cc1cc(Nc2ncnc3ccn(CCNC(=O)CS(C)(=O)=O)c23)ccc1Oc1cccc(OC(F)(F)F)c1 [Example 190, 2-(methylsulfonyl)-N-{2-[4-({3-methyl-4-[3-(trifluoromethoxy)phenoxy]phenyl}amino)-5H-pyrrolo[3,2-d]pyrimidin-5-yl]ethyl}acetamide]
95.9% | CCOCCn1ccc2ncnc(Nc3ccc(OCc4cccc(F)c4)c(Cl)c3)c21 [Example 38, N-{3-chloro-4-[(3-fluorobenzyl)oxy]phenyl}-5-(2-ethoxyethyl)-5H-pyrrolo[3,2-d]pyrimidin-4-amine]

What follows are compounds tested against T2, EGF receptor intracellular domain protein (Homo sapiens, UniProt P00533) (assay: Determination of EGF receptor kinase inhibitory activity). Conditions: 1.0 μM test compound; biotinyl-poly-Glu:Tyr (4:1), AlphaScreen, 25° C., 10 min; read-out: EGF receptor kinase Inhibitory rate (%) at 1.0 μM.
T2 construct: encoding EGF receptor intracellular domain region, so that the protein contains an N-terminal Flag tag; made in house; host or cells: SF-21 insect cells, recombinant baculovirus BAC-EGFR
T2 sequence (P00533 669-1210 limits assumed): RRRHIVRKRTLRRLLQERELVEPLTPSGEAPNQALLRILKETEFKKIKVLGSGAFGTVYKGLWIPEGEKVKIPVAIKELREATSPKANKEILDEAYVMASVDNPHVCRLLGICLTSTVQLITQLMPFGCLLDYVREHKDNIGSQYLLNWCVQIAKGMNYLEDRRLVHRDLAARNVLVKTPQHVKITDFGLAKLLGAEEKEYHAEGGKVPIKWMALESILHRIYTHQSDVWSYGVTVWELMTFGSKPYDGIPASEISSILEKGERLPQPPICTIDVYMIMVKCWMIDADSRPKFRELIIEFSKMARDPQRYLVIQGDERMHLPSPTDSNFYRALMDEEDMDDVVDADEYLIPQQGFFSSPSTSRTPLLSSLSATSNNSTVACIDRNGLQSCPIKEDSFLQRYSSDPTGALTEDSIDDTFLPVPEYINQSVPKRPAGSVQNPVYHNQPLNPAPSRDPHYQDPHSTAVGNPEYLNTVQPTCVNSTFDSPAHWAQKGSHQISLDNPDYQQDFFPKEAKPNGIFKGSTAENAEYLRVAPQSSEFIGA
Format: biochemical
Method: as §1, with “EGF receptor” for “HER2”, “A431” for “MCF7”, “primer” for “primer used”, “XM—167493)” for “M11730)”, “(2182-3810” for “(2176-3918”, “EGF receptor” for “the HER2”
The RT reaction was conducted using SuperScript First-Strand Synthesis System for RT-PCR (Invitrogen) and the PCR reaction was conducted using a KOD-plus kit (TOYOBO). The obtained PCR product was electrophoresed on agarose gel (1%), the DNA fragment amplified by PCR was recovered from the gel, and then digested with restriction enzymes Sal I and Sph I. The DNA treated with the restriction enzymes was electrophoresed on agarose gel (1%), and the obtained DNA fragment was recovered and ligated to plasmid pFASTBAC1 (Invitrogen) digested with restriction enzymes Sal I and Sph I to give expression plasmid pFB-EGFR. The nucleotide sequence of insertion fragment was confirmed and found to be identical with the nucleotide sequence (2182-3810 of Genbank Accession XM—167493) of EGFR intracellular domain. Furthermore, using BAC-TO-BAC Baculovirus Expression System (Invitrogen), virus stock BAC-EGFR of recombinant baculovirus was prepared.
SF-21 cells were sown at 1×10^6 cells/mL to Sf-900II SFM medium (1 L, Invitrogen) containing 10% fetal bovine serum (trace), 50 mg/L gentamicin (Invitrogen) and 0.1% Pluronic F-68 (Invitrogen), and shaking culture was performed using a 2 L volume Erlenmeyer flask at 27° C., 100 rpm. After culturing for 24 hrs, recombinant baculovirus BAC-EGFR (13.4 mL) was added, and the mixture was further cultured for 3 days. The culture medium was centrifuged at 2,000 rpm for 5 min. to give virus-infected cells. The infected cells were washed with a phosphate buffered saline (Invitrogen), centrifuged under the same conditions, and the cells were preserved at −80° C. The cryopreserved cells were thawed in ice, suspended in buffer A (50 mM Tris buffer (30 mL, pH7.4) containing 20% glycerol, 0.15 M NaCl) supplemented with Complete Protease Inhibitor (Boehringer), and ruptured 3 times with a Polytron homogenizer (Kinematica) at 20,000 rpm for 30 sec. The ruptured medium was clarified by centrifugation at 40,000 rpm for 30 min. and filtered with a 0.45 μm filter. The filtrate was passed through a column packed with Anti-FLAG M2 Affinity Gel (4 mL, Sigma) at a flow rate of about 0.5 mL/min. The column was washed with buffer A, and eluted with buffer A containing 100 μg/mL of FLAG peptide. The eluate was concentrated with Vivaspin 20 (Vivascience) having a molecular weight cut off of 30K. The buffer of this concentrate was exchanged using NAPE 25 column (Amersham Bioscience) equilibrated with buffer A. The fractions containing EGF receptor intracellular domain protein were collected, glycerol was added to the final concentration of 50% and cryopreserved at −80° C.
A test compound dissolved in dimethyl sulfoxide (DMSO) was diluted with a buffer (50 mM Tris-HCl (pH 7.5), 5 mM MgCl2, 5 mM MnCl2, 2 mM dithiothreitol, 0.01% Tween-20). To this compound solution (5 μL) was added a buffer (10 μL) containing 250 ng/mL of EGF receptor intracellular domain protein and 250 ng/mL of biotin labeled polypeptide biotinyl-poly-Glu:Tyr (4:1) (CIS bio International). […]

SMILES | inhibition at 1 µM
CS(=O)(=O)CC(=O)NCCn1ccc2ncnc(Nc3ccc(Oc4cccc(C(F)(F)F)c4)c(Cl)c3)c21 [Example 160, N-{2-[4-({3-chloro-4-[3-(trifluoromethyl)phenoxy]phenyl}amino)-5H-pyrrolo[3,2-d]pyrimidin-5-yl]ethyl}-2-(methylsulfonyl)acetamide] | 97%
OCCOCCn1ccc2ncnc(Nc3ccc(Oc4cccc(C(F)(F)F)c4)c(Cl)c3)c21 [Example 147, 2-{2-[4-({3-Chloro-4-[3-(trifluoromethyl)phenoxy]phenyl}amino)-5H-pyrrolo[3,2-d]pyrimidin-5-yl]ethoxy}ethanol] | 96%
OCCOCCn1ccc2ncnc(Nc3ccc(OCc4cccc(F)c4)c(Cl)c3)c21 [Example 138, 2-{2-[4-({3-chloro-4-[(3-fluorobenzyl)oxy]phenyl}amino)-5H-pyrrolo[3,2-d]pyrimidin-5-yl]ethoxy}ethanol] | 99%

Second part, the compound after the results:

inhibition at 1 µM | SMILES
98.9% | OCCn1ccc2ncnc(Nc3ccc(OCc4cccc(F)c4)c(Cl)c3)c21 [Example 41, 2-[4-({3-chloro-4-[(3-fluorobenzyl)oxy]phenyl}amino)-5H-pyrrolo[3,2-d]pyrimidin-5-yl]ethanol]
98.5% | Cn1c(/C=C/CO)cc2ncnc(Nc3ccc(OCc4cccc(F)c4)c(Cl)c3)c21 [Example 22, (2E)-3-[4-({3-chloro-4-[(3-fluorobenzyl)oxy]phenyl}amino)-5-methyl-5H-pyrrolo[3,2-d]pyrimidin-6-yl]-2-propen-1-ol]

Source: patent US8178543B2, “Bi- and tricyclic fused pyrimidines as tyrosine kinase inhibitors” (Takeda Pharmaceutical Company Limited, priority 2004, dated 2012)
